In patent US10214490B2, “Picolinamides as fungicides” (Dow AgroSciences LLC, priority 2016, dated 2019):
Like-named read-outs stand apart in the source and are kept apart here.

What was measured:
Format in all cases: in vivo
Zymoseptoria tritici = assay: Fungicidal activity: leaf blotch of wheat (SEPTTR), disease control on wheat seedlings; details: for pest or weed control at 121.5 g/ha / pest or weed control at 100 ppm: Zymoseptoria tritici
Description: Technical grades of materials were dissolved in acetone, which were then mixed with nine volumes of water containing 110 ppm Triton X-100. The fungicide solutions were applied onto wheat seedlings using an automated booth sprayer to run-off. All sprayed plants were allowed to air dry prior to further handling. All fungicides were evaluated using the aforementioned method for their activity vs. all target diseases, unless stated otherwise. Wheat leaf blotch and brown rust activity were also evaluated using track spray applications, in which case the fungicides were formulated as EC formulations, containing 0.1% Trycol 5941 in the spray solutions. Wheat plants (variety Yuma) were grown from seed in a greenhouse in 50% mineral soil/50% soil-less Metro mix until the first leaf was fully emerged, with 7-10 seedlings per pot. These plants were inoculated with an aqueous spore suspension of Zymoseptoria tritici either prior to or after fungicide treatments. After inoculation the plants were kept in 100% relative humidity (one day in a dark dew chamber followed by two to three days in a lighted dew chamber at 20° C.) to permit spores to germinate and infect the leaf. The plants were then transferred to a greenhouse set at 20° C. for disease to develop. When disease symptoms were fully expressed on the 1st leaves of untreated plants, infection levels were assessed on a scale of 0 to 100 percent disease severity. Percent disease control was calculated using the ratio of disease severity on treated plants relative to untreated plants.

Puccinia triticina = assay: Fungicidal activity: wheat brown rust (PUCCRT), disease control on wheat seedlings
Description: Technical grades of materials were dissolved in acetone, which were then mixed with nine volumes of water containing 110 ppm Triton X-100. The fungicide solutions were applied onto wheat seedlings using an automated booth sprayer to run-off. All sprayed plants were allowed to air dry prior to further handling. All fungicides were evaluated using the aforementioned method for their activity vs. all target diseases, unless stated otherwise. Wheat leaf blotch and brown rust activity were also evaluated using track spray applications, in which case the fungicides were formulated as EC formulations, containing 0.1% Trycol 5941 in the spray solutions. Wheat plants (variety Yuma) were grown from seed in a greenhouse in 50% mineral soil/50% soil-less Metro mix until the first leaf was fully emerged, with 7-10 seedlings per pot. These plants were inoculated with an aqueous spore suspension of Puccinia triticina either prior to or after fungicide treatments. After inoculation the plants were kept in a dark dew room at 22° C. with 100% relative humidity overnight to permit spores to germinate and infect the leaf. The plants were then transferred to a greenhouse set at 24° C. for disease to develop. Fungicide formulation, application and disease assessment followed the procedures as described in the Example A. Results of the evaluations are shown below in Table 4.

Phakopsora pachyrhizi = assay: Fungicidal activity: Asian soybean rust (PHAKPA), disease control on soybean seedlings; details: High Volume at 25 ppm
Description: Technical grades of materials were dissolved in acetone, which were then mixed with nine volumes of water containing 0.011% Tween 20. The fungicide solutions were applied onto soybean seedlings using an automated booth sprayer to run-off. All sprayed plants were allowed to air dry prior to further handling.
Soybean plants (variety Williams 82) were grown in soil-less Metro mix, with one plant per pot. Two weeks old seedlings were used for testing. Plants were inoculated either 3 days prior to or 1 day after fungicide treatments. Plants were incubated for 24 h in a dark dew room at 22° C. and 100% relative humidity then transferred to a growth room at 23° C. for disease to develop. Disease severity was assessed on the sprayed leaves.

[1] = HV activity at 100 ppm, 1 Day Protectant
[2] = HV activity at 100 ppm, 3 Day Curative
[3] = 24 h, LV activity at 121.5 g/H, 1 Day Protectant, read-out: SEPTTR 1DP disease control rating
[4] = 72 h, LV activity at 121.5 g/H, 3 Day Curative, read-out: SEPTTR 3DC disease control rating
[5] = 24 h, 1 Day Protectant, read-out: PHAKPA 1DP disease control rating
[6] = 72 h, 3 Day Curative, read-out: PHAKPA 3DC disease control rating
[7] = Puccinia triticina, 24 h, LV activity at 121.5 g/H, 1 Day Protectant, read-out: PUCCRT 1DP disease control rating
[8] = Puccinia triticina, 72 h, LV activity at 121.5 g/H, 3 Day Curative, read-out: PUCCRT 3DC disease control rating
[9] = LV activity at 121.5 g/H, 3 Day Curative

| SMILES | pest or weed control at 121.5 g/ha (Zymoseptoria tritici; [3]) [%] | pest or weed control at 121.5 g/ha (Zymoseptoria tritici; [4]) [%] | pest or weed control at 25 ppm (Phakopsora pachyrhizi; [5]) [%] | pest or weed control at 25 ppm (Phakopsora pachyrhizi; [6]) [%] | pest or weed control at 121.5 g/ha (Puccinia triticina; [7]) [%] | pest or weed control at 121.5 g/ha (Puccinia triticina; [8]) [%] | other results |
| --- | --- | --- | --- | --- | --- | --- | --- |
| COc1cc(F)ccc1[C@@H](Sc1ccccc1)[C@H](C)OC(=O)[C@H](C)NC(=O)c1nccc(OC)c1O [Compound 57] | – | – | – | – | – | – | SEPTTR 1DP disease control rating (Zymoseptoria tritici; [1]): B (≤80); SEPTTR 3DC disease control rating (Zymoseptoria tritici; [2]): A (>80); PUCCRT 1DP disease control rating (Puccinia triticina; [1]): A (>80); PUCCRT 3DC disease control rating (Puccinia triticina; [2]): D (≤0) |
| COc1ccnc(C(=O)N[C@@H](C)C(=O)O[C@@H](C)[C@H](Sc2ccccc2)c2ccccc2)c1OC(=O)OC(=O)C(C)C [Compound 79] | > 80 | > 80 | ≤ 80 | ≤ 80 | > 80 | ≤ 80 | – |
| COc1ccnc(C(=O)N[C@@H](C)C(=O)O[C@@H](C)[C@H](Sc2ccc(F)cc2C)c2ccccc2)c1OC(C)=O [Compound 83] | ≤ 80 | – | – | – | – | ≤ 0 | SEPTTR 3DC disease control rating (Zymoseptoria tritici; [9]): D (≤0) |
| COc1ccnc(C(=O)N[C@@H](C)C(=O)O[C@@H](C)[C@H](Sc2ccccc2)c2ccc(F)cc2)c1OC(C)=O [Compound 85] | – | – | ≤ 80 | ≤ 0 | – | ≤ 0 | SEPTTR 1DP disease control rating (Zymoseptoria tritici; LV activity at 121.5 g/H, 1 Day Protectant): B (≤80); SEPTTR 3DC disease control rating (Zymoseptoria tritici; [9]): D (≤0) |
| COc1ccnc(C(=O)N[C@@H](C)C(=O)O[C@@H](C)[C@@H](c2ccccc2)S(=O)(=O)c2ccc(C)cc2)c1OC(C)=O [Compound 66] | > 80 | ≤ 80 | ≤ 80 | ≤ 80 | ≤ 80 | ≤ 80 | – |
| COc1cc(F)ccc1[C@@H](Sc1ccccc1)[C@H](C)OC(=O)[C@H](C)NC(=O)c1nccc(OC)c1OC(C)=O [Compound 59] | ≤ 80 | ≤ 80 | – | – | > 80 | – | – |
| COc1cc(F)ccc1[C@@H](Sc1ccccc1)[C@H](C)OC(=O)[C@H](C)NC(=O)c1nccc(OC)c1O [Compound 40] | – | – | – | – | – | – | pest or weed control at 100 ppm (Zymoseptoria tritici; 24 h, HV activity at 100 ppm, 1 Day Protectant, read-out: SEPTTR 1DP disease control rating): > 80%; pest or weed control at 100 ppm (Zymoseptoria tritici; 72 h, HV activity at 100 ppm, 3 Day Curative, read-out: SEPTTR 3DC disease control rating): > 80%; PUCCRT 3DC disease control rating (Puccinia triticina; [2]): A (>80); pest or weed control at 100 ppm (Puccinia triticina; Puccinia triticina, 24 h, HV activity at 100 ppm, 1 Day Protectant, read-out: PUCCRT 1DP disease control rating): > 80% |
| COc1cc(F)ccc1[C@@H](Sc1ccccc1)[C@H](C)OC(=O)[C@H](C)NC(=O)c1nccc(OC)c1OC(C)=O [Compound 84] | – | – | – | – | – | – | PUCCRT 3DC disease control rating (Puccinia triticina; [9]): B (≤80) |
| COc1ccnc(C(=O)N[C@@H](C)C(=O)O[C@@H](C)[C@H](Sc2ccccc2)c2ccccc2)c1OC(=O)OC(C)=O [Compound 80] | ≤ 80 | ≤ 80 | ≤ 80 | ≤ 80 | > 80 | ≤ 80 | – |
| COc1ccnc(C(=O)N[C@@H](C)C(=O)O[C@@H](C)[C@@H](c2ccccc2)S(=O)(=O)c2ccc(C(F)(F)F)cn2)c1OC(C)=O [Compound 71] | ≤ 80 | ≤ 80 | ≤ 80 | ≤ 80 | ≤ 0 | ≤ 80 | – |
